# Experiments:
# Connexin43 hemichannel = target: T1, Connexin43 hemichannel (Homo sapiens, UniProt P17302); test: Whole-cell voltage clamp, Connexin43 transfected HeLa cells; assay type: cell-based; conditions: voltage steps; peptide5 100 μM; carbenoxolone and LaCl3 concentration not stated
# T1 construct: expressed in transfected cells; host or cells: HeLa (connexin-deficient parent), Cx43IRESeGFP, puromycin selection
# Method: Whole-cell voltage clamp studies were conducted on connexin deficient HeLa cells, Connexin43 transfected HeLa cells and isolated human cerebral microvascular endothelial cells (hCMVEC).
# HeLa cells were seeded at 0.045×10^6 cells/mL on 18 mm rat collagen I coated coverslips 16-24 hours before each experiment. Cx43IRESeGFP HeLa cells were cultured overnight in DMEM supplemented with 10% FCS and 1 μg/mL Puromycin at 37° C. at 95% O2 and 5% CO2. Control Cx-deficient cells were maintained in DMEM supplmented with 10% FCS. Coverslips were transferred to a chamber continuously perfused with modified Krebs-Ringer solution containing (in mM): 140 NaCl, 5.4 KCl, 1 MgCl2, 10 mM Hepes and pH adjusted to 7.4 at room temperature. The internal pipette solution contained (in mM): 130 KCl, 10 sodium aspartate, 0.26 CaCl2, 2 EGTA, 5 tetraethylammonium-Cl, 1 MgCl, 3 MgATP, and 5 Hepes at pH 7.2; and was kept on ice. The solutions are described in Contreras J E, et al., Cell Communication and Adhesion (2003), 10:245-249. To resolve single currents in whole-cell configuration, cells with low capacitance (<10 pF) and high resistance pipettes ([…]) with a seal resistance of (>5 GOhm) were selected for recording and analysis.
# HUVEC cells = test: Transfection uptake of FAM-labelled oligonucleotides (FACS); assay type: cell-based, Human; conditions: 200 nM
# Method: HUVEC cells (C-003-5C, Invitrogen, primary Human endothelial cells) were used to test the transfection of chemically modified backbones of the Connexin 43 antisense compounds. Cells were transfected with Oligofectamine® using the manufacturer's recommended protocol for 4 hr and 12 hr in serum-free media. The antisense concentration was 200 nM in buffer. The antisense compounds used had unmodified (O) or fully modified (PTO) backbones, where the modified backbone had all thiophosphoriate linkages between the nucleotides. The unmodified sequence SEQ1-O would have the sequence […] NO: 23). The modified sequence SEQ1-PTO would have the sequence of: [NT] NO: 23), wherein the subscript “s” indicates the thiophosphoriate linkage between the two nucleotides. […] All sequences for the transfection study were labelled with FAM for fluorescence labelling. The transfected cells were analyzed by FACS (fluorescent-activated cell sorting), and confocal microscopy.
# Connexin 43 RNA = test: Connexin 43 knockdown by qPCR in HUVEC; assay type: cell-based, human; conditions: for Avg % KD qPCR: HUVEC, phosphorothioate backbone ASN; for Absolute Difference from SEQ1 (relative knockdown): all-thiophosphoriate linkages in the entire backbone; for dose response of Cxn43 knockdown, qPCR: 200-600 nM
# Method: Next, the knockdown efficiency of Connexin 43 in HUVEC cells was measured by qPCR for an oligonucleotide series with the same sequence but with a different number of PTO-modifications on the oligonucleotide backbone. The sequences tested were SEQ1 and SEQ4, with none, 2, or all phosphorthioate linkages in the backbone. For the sequences with two phosphorthioate linkages in the backbone, the phosphorthioate linkages were between the last nucleotide linkages at the terminus of each side of the sequence. The sequences are Gs[…]sT (SEQ ID NO: 23) and As[…]sC (SEQ ID NO: 5) for SEQ1-2PTO and SEQ4-2PTO, respectively. […]
# (§1) Cells were grown in 6-well culture plates for 24 hr and reached 50-70% confluence prior to antisense oligonucleotide treatments using the transfection agent Oligofectamine®. Cells were harvested for qPCR and Western blotting analysis between 4 and 24 hr after transfection.
# qPCR was performed to determine the efficacy of antisense oligonucleotide in knockdown of the target RNA. Briefly, total RNA was extracted from the cells after transfection. The isolated RNA was DNAse-treated and reverse-transcribed into cDNA. The cDNA subsequently underwent qPCR thermal cycling. The Ct values (the number of cycles required for the fluorescent intensity to cross the set threshold) obtained from the qPCR were converted into relative abundance of RNA. The RNA level of the target was normalised to selected reference genes and compared between antisense oligonucleotide versus vehicle treatments.
# (§2) The cell screening experiments were performed using HUVEC cells (human umbilical vein endothelial cells; Invitrogen), with two biological replicates in each experiment. The identifiers of “CODA” are SEQ1, and “LP2” are SEQ4.
# Connexin 43 = Connexin 43 knockdown by Western blot in HUVEC; assay type: cell-based, human; conditions: phosphorothioate backbone ASN
# Method: as §1
# Western blotting was also performed to determine the efficacy of antisense oligonucleotide in knockdown of the target protein. Briefly, total proteins were extracted from the cells after transfection and the concentration was determined by performing bicinchoninic acid (BCA) assay. Subsequently, equal amounts of total protein were loaded for gel electrophoresis and blotted onto nitrocellulose membranes, which were then probed with a specific antibody against the target protein. Densitometry was used to quantify the band intensity of the target protein. Knockdown was quantified by comparing antisense oligonucleotide versus vehicle treatments.
# as §2
# [1] = cited from earlier work; for incidence of new geographic atrophy: treated monthly, average 23 injections over two years
# [2] = Table 66, 4 hr post-transfection
# [3] = Table 67, 4 hr post-transfection
# [4] = unmodified sequences (no phosphorthioate linkages)
# T1 sequence (P17302 2-382 limits assumed): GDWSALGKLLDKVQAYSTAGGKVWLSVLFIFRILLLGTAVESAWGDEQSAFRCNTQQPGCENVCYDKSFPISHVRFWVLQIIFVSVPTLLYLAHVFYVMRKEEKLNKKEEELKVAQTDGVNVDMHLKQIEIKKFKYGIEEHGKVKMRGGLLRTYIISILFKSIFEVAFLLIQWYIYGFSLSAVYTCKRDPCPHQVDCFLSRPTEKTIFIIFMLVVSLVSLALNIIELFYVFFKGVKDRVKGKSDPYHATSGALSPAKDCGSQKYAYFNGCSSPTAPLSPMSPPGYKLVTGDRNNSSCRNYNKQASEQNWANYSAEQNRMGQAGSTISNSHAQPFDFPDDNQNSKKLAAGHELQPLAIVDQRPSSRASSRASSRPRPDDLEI
compound,measurement,setting,value
[Cl][La]([Cl])[Cl] [LaCl3],Connexin43 hemichannel activity,Connexin43 hemichannel,virtually complete hemichannel block
ACCCATGTTGCCTGGGCACC (chemistry not fully specified) [SEQ4-Q],"% transfected, M2",HUVEC cells; [2],64%
same,"% transfected, M3",HUVEC cells; [2],34%
same,"% transfected, M4",HUVEC cells; [2],1%
same,"% transfected, Total",HUVEC cells; [2],99%
same,"% transfected, M2",HUVEC cells; [3],55%
same,"% transfected, M3",HUVEC cells; [3],41%
same,"% transfected, M4",HUVEC cells; [3],2%
same,"% transfected, Total",HUVEC cells; [3],99%
AGGCTGTGCATGGGAGTTAG (chemistry not given here) [SEQ7/1233],Avg % KD qPCR,Connexin 43 RNA,82%
same,Absolute Difference from SEQ1 (relative knockdown),Connexin 43 RNA,17
same,Avg % KD WB,Connexin 43,75%
ATATGATCTGCAGGACCCAG (chemistry not given here) [SEQ9/50506],Avg % KD qPCR,Connexin 43 RNA,79%
same,Absolute Difference from SEQ1 (relative knockdown),Connexin 43 RNA,14
same,Avg % KD WB,Connexin 43,73%
AsCsCsCsAsTsGsTsTsGsCsCsTsGsGsGsCsAsCsC (ACCCATGTTGCCTGGGCACC; chemistry not fully specified) [SEQ4-PTO],"% transfected, M2",HUVEC cells; [2],9%
same,"% transfected, M3",HUVEC cells; [2],44%
same,"% transfected, M4",HUVEC cells; [2],48%
same,"% transfected, Total",HUVEC cells; [2],100%
same,"% transfected, M2",HUVEC cells; [3],9%
same,"% transfected, M3",HUVEC cells; [3],44%
same,"% transfected, M4",HUVEC cells; [3],47%
same,"% transfected, Total",HUVEC cells; [3],99%
Avastin: VEGF antagonist antibody,incidence of new geographic atrophy,[1],19.5%
CAGAAGCGCACATGAGAGAT (chemistry not given here) [SEQ8/47001],Avg % KD qPCR,Connexin 43 RNA,81%
same,Absolute Difference from SEQ1 (relative knockdown),Connexin 43 RNA,15
same,Avg % KD WB,Connexin 43,75%
CCAGGCTGACTCAACCGCTG (chemistry not given here) [SEQ4/37501],Avg % KD qPCR,Connexin 43 RNA,87%
same,Absolute Difference from SEQ1 (relative knockdown),Connexin 43 RNA,22
same,"dose response of Cxn43 knockdown, qPCR",Connexin 43 RNA; [4],exhibited a dose response
same,Avg % KD WB,Connexin 43,82%
CGCTGGTCCACAATGGCTAG (chemistry not given here) [SEQ6/133705],Avg % KD qPCR,Connexin 43 RNA,83%
same,Absolute Difference from SEQ1 (relative knockdown),Connexin 43 RNA,18
same,"dose response of Cxn43 knockdown, qPCR",Connexin 43 RNA; [4],exhibited a dose response
same,Avg % KD WB,Connexin 43,75%
GAAGCGCACATGAGAGATTG (chemistry not given here) [SEQ11],Absolute Difference from SEQ1 (relative knockdown),Connexin 43 RNA,20
GCTGGCTCTGCTTGAAGGTC (chemistry not given here) [SEQ 5/133705],Avg % KD qPCR,Connexin 43 RNA,84%
same,Absolute Difference from SEQ1 (relative knockdown),Connexin 43 RNA,19
same,Avg % KD WB,Connexin 43,75%
"GTAATTGCGGCAAGAAGAATTGTTTCTGT (DNA, phosphodiester; FAM fluorescent label attached, position not given here) [SEQ1-O]","% transfected, M2",HUVEC cells; [2],56%
same,"% transfected, M3",HUVEC cells; [2],42%
same,"% transfected, M4",HUVEC cells; [2],2%
same,"% transfected, Total",HUVEC cells; [2],99%
same,"% transfected, M2",HUVEC cells; [3],56%
same,"% transfected, M3",HUVEC cells; [3],40%
same,"% transfected, M4",HUVEC cells; [3],2%
same,"% transfected, Total",HUVEC cells; [3],98%
GTAATTGCGGCAAGAAGAATTGTTTCTGTC (chemistry not given here) [SEQ1],"knockdown effect on Cxn43, qPCR","Connexin 43 RNA; unmodified sequences (no phosphorthioate linkages), 4 hr, all concentrations (200-600 nM)",≤ 10%
GsTsAsAsTsTsGsCsGsGsCsAsAsGsAsAsGsAsAsTsTsGsTsTsTsCsTsGsT (GTAATTGCGGCAAGAAGAATTGTTTCTGT; chemistry not fully specified) [SEQ1-PTO],"% transfected, M2",HUVEC cells; [2],26%
same,"% transfected, M3",HUVEC cells; [2],63%
same,"% transfected, M4",HUVEC cells; [2],11%
same,"% transfected, Total",HUVEC cells; [2],100%
same,"% transfected, M2",HUVEC cells; [3],15%
same,"% transfected, M3",HUVEC cells; [3],49%
same,"% transfected, M4",HUVEC cells; [3],35%
same,"% transfected, Total",HUVEC cells; [3],100%
Lucentis: VEGF antagonist antibody,new geographic atrophy,[1]; treated as needed,16%
same,incidence of new geographic atrophy,[1],29.4%
TCTCCCCAGGCTGACTCAAC (chemistry not given here) [SEQ10/37503],Avg % KD qPCR,Connexin 43 RNA,77%
same,Absolute Difference from SEQ1 (relative knockdown),Connexin 43 RNA,12
same,Avg % KD WB,Connexin 43,75%

# Reference: patent US11401516B2, “Channel modulators” (AUCKLAND UNISERVICES LIMITED, priority 2014, dated 2022)
